This note sets out measurements from publication PMC5743599 (Antiviral research, 2017).

The test system of one data set is HBV genotype A. Description: Pilot/preliminary efficacy study in HBV genotype A-infected huFRG KO mice. The format is in vivo, hepatitis B virus.
The nature of data set [1]: Single and repeat dose maximum tolerated dose studies. It counts as in vivo, C57Bl/6 mice or huFRG KO mice.
A short description of the next data set: Tolerability. It counts as in vivo, huFRG KO mice. The conditions noted are these: for weight recovery after the treatment phase: primary study, post-treatment.
The test system of a further data set is HBV genotype C. The data set is described as follows: Primary efficacy study in HBV genotype C-infected huFRG KO mice. It counts as in vivo, hepatitis B virus.
The test system of another data set is HBV. The data set is described as follows: HBV transgenic mouse model. It counts as in vivo, hepatitis B virus. The conditions noted are these: HBV transgenic mice, 100 mg/kg daily IP; data not shown.
[2] abbreviates: entecavir 1 mg/kg/day PO, Days 59-72, genotype C.

`CC(=Nc1ccccc1N)c1c(C)cc(=O)n(O)c1O` [#208]: the “suppression of HBV viremia (average) after one week” value in the data set with HBV genotype A (50 and 100 mg/kg/day IP, Days 160-173, vs pretreatment Day 159, genotype A) was found to be 1.1 log. Also, in the data set on HBV genotype A (50 and 100 mg/kg/day IP, surviving mice, genotype A), the “suppression of HBV viremia at week two” value is reported as “sustained”. Besides, the “decrease in HBV titers (trend) in pilot experiment” value in the data set on HBV genotype A (genotype A, #208 treated animals) is about 1 log. For the same molecule, in data set [1] (non-infected mice, IP), the Dose-limiting toxicity was >10% weight loss, hypoactivity, unkempt appearance, feeling cool-to-touch, and distended abdomen. Besides, in data set [1] (single and repeat IP injections up to seven days, male C57Bl/6 or huFRG KO mice), the “maximum tolerated dose (MTD)” value is given as 100 mg/kg. For the same molecule, in the data set “Tolerability” (Day 87-88, one animal per group, not with certainty test article-related), the “deaths / moribundity in post-dosing phase of primary study” value is listed as “found dead”. For the same molecule, the “weight recovery after the treatment phase” value in the data set “Tolerability” is “some weight gain occurred”. Further, in the data set with HBV genotype C (100 mg/kg/day IP, genotype C), the “decrease in HBV titers after one week compared to control mice” value is given as 1.6 log and the “decrease in HBV titers after two weeks of dosing compared to control mice” value was determined as 1.4 log. Besides, in the data set on HBV, the “reduction of intrahepatic DNA accumulation” value is given as “failed to reduce” and the “reduction of serum viremia” value is recorded as “failed to reduce”.

`C=C1[C@H](CO)[C@@H](O)C[C@@H]1n1cnc2c(=O)[nH]c(N)nc21` [entecavir, Entecavir, reference compound]: the “Viral titers rebounded to pretreatment levels by Day” value with HBV genotype A (after entecavir withdrawal (treatment days 71-84), genotype A) is at most 159 days. For the same molecule, in the data set with HBV genotype A (entecavir 1.0 mg/kg PO two weeks, Days 70 to 85, genotype A, plasma), the “drop in HBV titers more than the control animals” value is 2.8 log. Further, the “weight recovery after the treatment phase” value in the data set “Tolerability” was “some weight gain occurred”. For the same molecule, in the data set with HBV genotype C (setting [2]), the “decrease in HBV titers after one week of treatment” value was found to be 2.6 log and the “decrease in HBV titers after two weeks” value turned out to be 3.2 log.
